Source: paper PMC8427973, “Regulation of the HTRA2 Protease Activity by an Inhibitory Antibody-Derived Peptide Ligand and the Influence on HTRA2-Specific Protein Interaction Networks in Retinal Tissues” (Biomedicines, 2021)

Test system: recombinant 6xHis-tag HTRA2 and its protein interaction partners in homogenized porcine retina
Assay: Co-immunoprecipitation (Co-IP) of HTRA2 protein interaction partners, quantitative LC-MS/MS (iBAQ, volcano plot vs CTRL beads)
Set-up: species or system house swine (Sus scrofa)
Conditions: 2 µg HTRA2 + 10 µg compound, n = 3, vs CTRL beads
Method: The retina extraction and homogenization were performed as already described in previous publications. The use of animal by-products of house swine for scientific research purposes was approved by the Kreisverwaltung Mainz-Bingen in Germany (Identification Code: DE 07 315 0006 21, approved on 13 January 2014). In brief, retinal tissues were extracted from freshly removed porcine eye bulbs (house swine, Sus scrofa domestica Linnaeus, n = 30) provided by the local slaughterhouses (Landmetzgerei Harth, Stadecken-Elsheim, Germany). Afterwards, the retinal tissues were homogenized in 2 mL screw cap microtubes filled with 1.4/2.8 mm ceramic beads and 1 mL Tissue Protein Extraction Reagent (T-PER, Thermo Fisher Scientific, Rockford, IL, USA) using a Percellys® 24 homogenizer (VWR International GmbH, Darmstadt, Germany). The homogenized retinal samples were then centrifuged at 14,000× g for 15 min at 4 °C. The protein-containing supernatant was exchanged in a 100 µL phosphate-buffered saline (PBS) using a 3 kDa Amicon® filtration unit (Millipore, Billerica, MA, USA) and, prior to this, was extensively washed in order to completely remove traces of the T-PER buffer. Afterwards, the samples were pooled and the protein concentration was determined using a Pierce Bicinchoninic Acid (BCA) Protein Assay Kit (Thermo Fisher Scientific, Rockford, IL, USA) according to the manufacturer’s protocol, which provided 5 mg aliquots for further analysis.
The recombinant protein HTRA2 with a C-terminal 6xHis-tag motif (Novoprotein Scientific INC., Summit, NJ, USA) and 40 μL HisPurTM Ni-NTA magnetic beads (Thermo Fisher Scientific, Rockford, IL, USA) were spiked into 5 mg homogenized porcine retina. The experiment comprised of four groups: control homogenate (CTRL group), homogenate with 2 μg recombinant HTRA2 (HTRA2 group), homogenate with 2 μg recombinant HTRA2 and 10 μg UCF-101 (UCF-101 group), and homogenate with 2 μg recombinant HTRA2 and 10 μg synthetic CDR peptide (CDR group). The Co-IP of the recombinant HTRA2 and the enrichment of the respective interaction partners was performed with three independent biological replicates for each group (CTRL, HTRA2, UCF-101, and CDR group). After incubation at 4 °C overnight, the 6xHis-tagged protein HTRA2 with the bounded protein interaction partners (co-immunoprecipitation) was isolated with the previously added HisPurTM Ni-NTA magnetic beads (Thermo Fisher Scientific, Rockford, IL, USA) using a magnetic stand. Each bead group was washed twice with 400 μL PBS and the bounded HTRA2 including the protein interaction partners were eluted by pH shift. The protein concentration of each eluate fraction was determined as described above. Afterwards, 50 μg of each eluate fraction was evaporated using a speed vacuum concentrator (SpeedVac) (Eppendorf, Hamburg, Germany) for 45 min at 30 °C and was stored afterwards at −20 °C.
The protein eluate fractions of each group (50 μg; n = 3 biological replicates per group) were separated by 1D SDS PAGE on 10-well NuPAGE® 12% Bis-Tris gels using NuPAGE™ MOPS SDS Running Buffer 20X (Thermo Fisher Scientific, Rockford, IL, USA). The 1D SDS PAGE was performed with the XCell SureLock^TM Mini-Cell Electrophoresis System (Thermo Fisher Scientific, Rockford, IL, USA) under denatured and reduced conditions, as already described in previous publications. The protein separation was performed for 2 h at 4 °C using 150 V, and then the gels were stained with the Novex Colloidal Blue Staining Kit (Thermo Fisher Scientific, Rockford, IL, USA) according to the manufacturer’s protocol. The next day, the gels were destained overnight and scanned using a DGP-9042 scanner (Brother Industries, Nagoya, Japan) at 600 dpi. In-gel trypsin digestion was performed as already described in previous publications. In brief, each protein lane was divided into 17 slices and was subsequently cut into small pieces. […]

Question: With O=C1C(=Cc2ccc(-c3ccccc3[N+](=O)[O-])o2)C(=O)N(c2ccccc2)C(=S)N1c1ccccc1 [UCF-101, reference compound] as the compound, how does the “FGF2 (Fibroblast growth factor 2) as significant interaction partner of HTRA2” value (HTRA2 alone: -) read?
Answer: √ (Proteins fulfilled filtering criteria (p < 0.01; log2 fold change > 1.5))

Question: And the “FTH1 (Ferritin heavy chain) as significant interaction partner of HTRA2” value (HTRA2 alone: -)?
Answer: √ (Proteins fulfilled filtering criteria (p < 0.01; log2 fold change > 1.5))

Question: And the “GTF2F2 (General transcription factor IIF subunit 2) as significant interaction partner of HTRA2” value (HTRA2 alone: -)?
Answer: √ (Proteins fulfilled filtering criteria (p < 0.01; log2 fold change > 1.5))

Question: What about the “NAPG (Gamma-soluble NSF attachment protein) as significant interaction partner of HTRA2” value (HTRA2 alone: -) of the same compound?
Answer: - (Proteins failed to fulfill the filtering criteria (p > 0.01; log2 fold change < 1.5))

Question: And the “PDZD11 (PDZ domain-containing protein 11) as significant interaction partner of HTRA2” value (HTRA2 alone: -)?
Answer: √ (Proteins fulfilled filtering criteria (p < 0.01; log2 fold change > 1.5))

Question: What about the “PGRMC1 (Membrane-associated progesterone receptor component 1) as significant interaction partner of HTRA2” value (HTRA2 alone: -) of the same compound?
Answer: √ (Proteins fulfilled filtering criteria (p < 0.01; log2 fold change > 1.5))

Question: And the “PLRG1 (Pleiotropic regulator 1) as significant interaction partner of HTRA2” value (HTRA2 alone: -)?
Answer: - (Proteins failed to fulfill the filtering criteria (p > 0.01; log2 fold change < 1.5))

Question: And the “POLR2E (DNA-directed RNA polymerases I, II, and III subunit RPABC1) as significant interaction partner of HTRA2” value (HTRA2 alone: -)?
Answer: - (Proteins failed to fulfill the filtering criteria (p > 0.01; log2 fold change < 1.5))

Question: And the “PPA1 (Inorganic pyrophosphatase) as significant interaction partner of HTRA2” value (HTRA2 alone: -)?
Answer: √ (Proteins fulfilled filtering criteria (p < 0.01; log2 fold change > 1.5))

Question: What about the “SFRP1 (Secreted frizzled-related protein 1) as significant interaction partner of HTRA2” value (HTRA2 alone: -) of the same compound?
Answer: - (Proteins failed to fulfill the filtering criteria (p > 0.01; log2 fold change < 1.5))

Question: What about the “TUBA1C (Tubulin alpha-1C chain) as significant interaction partner of HTRA2” value (HTRA2 alone: -) of the same compound?
Answer: - (Proteins failed to fulfill the filtering criteria (p > 0.01; log2 fold change < 1.5))

Question: And the “UBE2N (Ubiquitin-conjugating enzyme E2 N) as significant interaction partner of HTRA2” value (HTRA2 alone: -)?
Answer: √ (Proteins fulfilled filtering criteria (p < 0.01; log2 fold change > 1.5))

Question: What about the “CDC42 (Cell division control protein 42 homolog) as significant interaction partner of HTRA2” value (HTRA2 alone: n.d.) of the same compound?
Answer: √ (Proteins fulfilled filtering criteria (p < 0.01; log2 fold change > 1.5))

Question: What about the “COPE (Coatomer subunit epsilon) as significant interaction partner of HTRA2” value (HTRA2 alone: n.d.) of the same compound?
Answer: √ (Proteins fulfilled filtering criteria (p < 0.01; log2 fold change > 1.5))

Question: And the “MRPL2 (39S ribosomal protein L2, mitochondrial) as significant interaction partner of HTRA2” value (HTRA2 alone: n.d.)?
Answer: - (Proteins failed to fulfill the filtering criteria (p > 0.01; log2 fold change < 1.5))

Question: And the “SNX3 (Sorting nexin-3) as significant interaction partner of HTRA2” value (HTRA2 alone: n.d.)?
Answer: √ (Proteins fulfilled filtering criteria (p < 0.01; log2 fold change > 1.5))

Question: And the “SOWAHA (Ankyrin repeat domain-containing protein SOWAHA) as significant interaction partner of HTRA2” value (HTRA2 alone: n.d.)?
Answer: - (Proteins failed to fulfill the filtering criteria (p > 0.01; log2 fold change < 1.5))

Question: What about the “TIMM13 (Mitochondrial import inner membrane translocase subunit Tim13) as significant interaction partner of HTRA2” value (HTRA2 alone: n.d.) of the same compound?
Answer: √ (Proteins fulfilled filtering criteria (p < 0.01; log2 fold change > 1.5))

Question: And the “TUBB8 (Tubulin beta-8 chain) as significant interaction partner of HTRA2” value (HTRA2 alone: n.d.)?
Answer: - (Proteins failed to fulfill the filtering criteria (p > 0.01; log2 fold change < 1.5))

Question: What about the “ANK2 (Ankyrin-2) as significant interaction partner of HTRA2” value (HTRA2 alone: √) of the same compound?
Answer: - (Proteins failed to fulfill the filtering criteria (p > 0.01; log2 fold change < 1.5))

Question: What about the “AP2A1 (AP-2 complex subunit alpha-1) as significant interaction partner of HTRA2” value (HTRA2 alone: √) of the same compound?
Answer: - (Proteins failed to fulfill the filtering criteria (p > 0.01; log2 fold change < 1.5))

Question: And the “AP3D1 (AP-3 complex subunit delta-1) as significant interaction partner of HTRA2” value (HTRA2 alone: √)?
Answer: - (Proteins failed to fulfill the filtering criteria (p > 0.01; log2 fold change < 1.5))

Question: What about the “AUH (Methylglutaconyl-CoA hydratase, mitochondrial) as significant interaction partner of HTRA2” value (HTRA2 alone: √) of the same compound?
Answer: - (Proteins failed to fulfill the filtering criteria (p > 0.01; log2 fold change < 1.5))

Question: What about the “CS (Citrate synthase, mitochondrial) as significant interaction partner of HTRA2” value (HTRA2 alone: √) of the same compound?
Answer: - (Proteins failed to fulfill the filtering criteria (p > 0.01; log2 fold change < 1.5))

Question: What about the “CSTB (Cystatin-B) as significant interaction partner of HTRA2” value (HTRA2 alone: √) of the same compound?
Answer: - (Proteins failed to fulfill the filtering criteria (p > 0.01; log2 fold change < 1.5))

Question: And the “DNAJA3 (DnaJ homolog subfamily A member 3, mitochondrial) as significant interaction partner of HTRA2” value (HTRA2 alone: √)?
Answer: - (Proteins failed to fulfill the filtering criteria (p > 0.01; log2 fold change < 1.5))

Question: And the “DTD1 (D-aminoacyl-tRNA deacylase 1) as significant interaction partner of HTRA2” value (HTRA2 alone: √)?
Answer: - (Proteins failed to fulfill the filtering criteria (p > 0.01; log2 fold change < 1.5))

Question: What about the “EIF2S3 (Eukaryotic translation initiation factor 2 subunit 3) as significant interaction partner of HTRA2” value (HTRA2 alone: √) of the same compound?
Answer: - (Proteins failed to fulfill the filtering criteria (p > 0.01; log2 fold change < 1.5))

Question: And the “FAM30A (Putative uncharacterized protein FAM30A) as significant interaction partner of HTRA2” value (HTRA2 alone: √)?
Answer: - (Proteins failed to fulfill the filtering criteria (p > 0.01; log2 fold change < 1.5))

Question: And the “FLNA (Filamin-A) as significant interaction partner of HTRA2” value (HTRA2 alone: √)?
Answer: - (Proteins failed to fulfill the filtering criteria (p > 0.01; log2 fold change < 1.5))

Question: And the “GDI1 (Rab GDP dissociation inhibitor alpha) as significant interaction partner of HTRA2” value (HTRA2 alone: √)?
Answer: - (Proteins failed to fulfill the filtering criteria (p > 0.01; log2 fold change < 1.5))

Question: What about the “GLO1 (Lactoylglutathione lyase) as significant interaction partner of HTRA2” value (HTRA2 alone: √) of the same compound?
Answer: - (Proteins failed to fulfill the filtering criteria (p > 0.01; log2 fold change < 1.5))

Question: And the “GNL1 (Guanine nucleotide-binding protein-like 1) as significant interaction partner of HTRA2” value (HTRA2 alone: √)?
Answer: - (Proteins failed to fulfill the filtering criteria (p > 0.01; log2 fold change < 1.5))

Question: And the “HAGH (Hydroxyacylglutathione hydrolase, mitochondrial) as significant interaction partner of HTRA2” value (HTRA2 alone: √)?
Answer: - (Proteins failed to fulfill the filtering criteria (p > 0.01; log2 fold change < 1.5))

Question: And the “HTRA2 (Serine protease HTRA2, mitochondrial; target protein) enriched” value (HTRA2 alone: √)?
Answer: √ (Proteins fulfilled filtering criteria (p < 0.01; log2 fold change > 1.5))

Question: And the “HYOU1 (Hypoxia up-regulated protein 1) as significant interaction partner of HTRA2” value (HTRA2 alone: √)?
Answer: - (Proteins failed to fulfill the filtering criteria (p > 0.01; log2 fold change < 1.5))

Question: And the “ME2 (NAD-dependent malic enzyme, mitochondrial) as significant interaction partner of HTRA2” value (HTRA2 alone: √)?
Answer: - (Proteins failed to fulfill the filtering criteria (p > 0.01; log2 fold change < 1.5))

Question: What about the “NCKAP1 (Nck-associated protein 1) as significant interaction partner of HTRA2” value (HTRA2 alone: √) of the same compound?
Answer: - (Proteins failed to fulfill the filtering criteria (p > 0.01; log2 fold change < 1.5))

Question: What about the “PACS1 (Phosphofurin acidic cluster sorting protein 1) as significant interaction partner of HTRA2” value (HTRA2 alone: √) of the same compound?
Answer: - (Proteins failed to fulfill the filtering criteria (p > 0.01; log2 fold change < 1.5))

Question: What about the “POTEE (POTE ankyrin domain family member E) as significant interaction partner of HTRA2” value (HTRA2 alone: √) of the same compound?
Answer: - (Proteins failed to fulfill the filtering criteria (p > 0.01; log2 fold change < 1.5))

Question: What about the “PTGES3 (Prostaglandin E synthase 3) as significant interaction partner of HTRA2” value (HTRA2 alone: √) of the same compound?
Answer: √ (Proteins fulfilled filtering criteria (p < 0.01; log2 fold change > 1.5))

Question: What about the “SHMT2 (Serine hydroxymethyltransferase, mitochondrial) as significant interaction partner of HTRA2” value (HTRA2 alone: √) of the same compound?
Answer: - (Proteins failed to fulfill the filtering criteria (p > 0.01; log2 fold change < 1.5))

Question: And the “SPTBN1 (Spectrin beta chain, non-erythrocytic 1) as significant interaction partner of HTRA2” value (HTRA2 alone: √)?
Answer: - (Proteins failed to fulfill the filtering criteria (p > 0.01; log2 fold change < 1.5))

Question: And the “UBE2V1 (Ubiquitin-conjugating enzyme E2 variant 1) as significant interaction partner of HTRA2” value (HTRA2 alone: √)?
Answer: √ (Proteins fulfilled filtering criteria (p < 0.01; log2 fold change > 1.5))
